# Measured values taken from US12157730B2, “Heteroaryl derivative, method for producing same, and pharmaceutical composition comprising same as effective component” (VORONOI INC., priority 2019, dated 2024).
# Biological target: T1, Ba/F3 cell EGFR Exon20 ins NPH (Homo sapiens, UniProt P00533, INS773NPH)
# T1 construct: expressed in transfected cells; host or cells: Ba/F3
# Assay: Ba/F3 cell proliferation suppression, EGFR Exon20 ins NPH
# Type: cell-based
# Conditions: GI50 class; Ba/F3 cell line with NPH inserted at Exon20 of EGFR; 72 hours
# In short: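 Cells were seeded 24 h before dosing and then treated for 72 hours with compound at final concentrations of 0.3 nM to 50 um. Live cells were measured by CellTiter-Glo luminescence, and GI50 values were derived from growth ratio relative to control across three repeats.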
row,Structure (SMILES),Ba/F3 (NPH) Activity
1,"C=CC(=O)Nc1cc(Nc2cc(N3OCC[C@@H]3c3ccc(F)c(Cl)c3)ncn2)c(OC)cc1N1CCC(N2CCN(CC)CC2)CC1 [Example 263, N-(5-((6-((R)-3-(3-chloro-4-fluorophenyl)isoxazolidine-2-yl)pyrimidine-4-yl)amino)-2-(4-(4-ethylpiperazine-1-yl)piperidine-1-yl)-4-methoxyphenyl) acrylamide]",A (GI50 < 50 nM)
2,"C=CC(=O)Nc1cc(Nc2cc(N3OCC[C@@H]3c3ccccc3)ncn2)c(OC)cc1N1CCN(C2CCCC2)CC1 [Example 279, N-(2-(4-cyclopentylpiperazine-1-yl)-4-methoxy-5-((6-((R)-3-phenylisoxazolidine-2-yl)pyrimidine-4-yl)amino)phenyl) acrylamide]",A (GI50 < 50 nM)
3,"C=CC(=O)Nc1cc(Nc2cc(N3OCC[C@@H]3c3cccc(C)c3F)ncn2)c(OC)cc1N1CCC(N2CCN(C3CC3)CC2)CC1 [Example 140, N-(2-(4-(4-cyclopropylpiperazine-1-yl)piperidine-1-yl)-5-((6-((R)-3-(2-fluoro-3-methylphenyl)isoxazolidine-2-yl)pyrimidine-4-yl)amino)-4-methoxyphenyl) acrylamide]",A (GI50 < 50 nM)
4,"C=CC(=O)Nc1cc(Nc2cc(N3OCC[C@@H]3c3cccc(F)c3)ncn2)c(OC)cc1N1CCN(C2CC2)CC1 [compound 830, N-(2-(4-cyclopropylpiperazine-1-yl)-5-((6-((R)-3-(3-fluorophenyl)isoxazolidine-2-yl)pyrimidine-4-yl)amino)-4-methoxyphenyl) acrylamide]",A (GI50 < 50 nM)
5,"C=CC(=O)Nc1cc(Nc2cc(N3OCC[C@H]3Cc3ccccc3)ncn2)c(OC)cc1N1CCOCC1 [compound 966, N-(5-((6-((R)-3-benzylisoxazolidine-2-yl)pyrimidine-4-yl)amino)-4-methoxy-2-morpholinophenyl) acrylamide]",C (500 nM ≤ GI50 < 5000 nM)
6,"C=CC(=O)Nc1cc(Nc2cc(N3OCC[C@@H]3c3cc(F)cc(F)c3)ncn2)c(OC)cc1N1CCC(N2CCN(C)C[C@@H]2C)CC1 [compound 762, N-(5-((6-((R)-3-(3,5-difluorophenyl)isoxazolidine-2-yl)pyrimidine-4-yl)amino)-2-(4-((S)-2,4-dimethylpiperazine-1-yl)piperidine-1-yl)-4-methoxyphenyl) acrylamide]",A (GI50 < 50 nM)
7,"C=CC(=O)Nc1cc(Nc2cc(N3OCC[C@@H]3c3cccc(C#N)c3)ncn2)c(OC)cc1N1CCN(C2COC2)CC1 [compound 391, N-(5-((6-((R)-3-(3-cyanophenyl)isoxazolidine-2-yl)pyrimidine-4-yl)amino)-4-methoxy-2-(4-(oxetane-3-yl)piperazine-1-yl)phenyl) acrylamide]",B (50 nM ≤ GI50 < 500 nM)
8,"C=CC(=O)Nc1cc(Nc2cc(N3OCC[C@@H]3Cc3cccnc3)ncn2)c(OC)cc1N1CCC(N2CCN(C3CC3)CC2)CC1 [compound 985, N-(2-(4-(4-cyclopropylpiperazine-1-yl)piperidine-1-yl)-4-methoxy-5-((6-((S)-3-(pyridine-3-ylmethyl)isoxazolidine-2-yl)pyrimidine-4-yl)amino)phenyl) acrylamide]",C (500 nM ≤ GI50 < 5000 nM)
9,"C=CC(=O)Nc1cc(Nc2cc(N3OCC[C@@H]3c3ccc(F)cc3F)ncn2)c(OC)cc1N1CCC(N2CCN(C3CC3)CC2)CC1 [Example 139, N-(2-(4-(4-cyclopropylpiperazine-1-yl)piperidine-1-yl)-5-((6-((R)-3-(2,4-difluorophenyl)isoxazolidine-2-yl)pyrimidine-4-yl)amino)-4-methoxyphenyl) acrylamide]",A (GI50 < 50 nM)
10,"C=CC(=O)Nc1cc(Nc2cc(N3OCC[C@@H]3c3cc(F)cc(F)c3)ncn2)c(OC)cc1N1CCC(N2C[C@@H]3C[C@H]2CN3CC)CC1 [Example 264, N-(5-((6-((R)-3-(3,5-difluorophenyl)isoxazolidine-2-yl)pyrimidine-4-yl)amino)-2-(4-((1S,4S)-5-ethyl-2,5-diazabicyclo[2.2.1]heptane-2-yl)piperidine-1-yl)-4-methoxyphenyl) acrylamide]",A (GI50 < 50 nM)
11,"C=CC(=O)Nc1cc(Nc2cc(N3OCC[C@@H]3c3cccc(C#N)c3)ncn2)c(OC)cc1N1CCC(N2CCC(F)(F)CC2)CC1 [compound 433, N-(5-((6-((R)-3-(3-cyanophenyl)isoxazolidine-2-yl)pyrimidine-4-yl)amino)-2-(4,4-difluoro-[1,4'-bipiperidine]-1'-yl)-4-methoxyphenyl) acrylamide]",A (GI50 < 50 nM)

# Next, values leading:
row,Ba/F3 (NPH) Activity,Structure (SMILES)
1,B (50 nM ≤ GI50 < 500 nM),"C=CC(=O)Nc1cc(Nc2cc(N3OCC[C@@H]3c3ccc(Cl)c(F)c3)ncn2)c(OC)cc1N(C)CCOC [compound 853, N-(5-((6-((R)-3-(4-chloro-3-fluorophenyl)isoxazolidine-2-yl)pyrimidine-4-yl)amino)-4-methoxy-2-((2-methoxyethyl)(methyl)amino)phenyl) acrylamide]"
2,A (GI50 < 50 nM),"C=CC(=O)Nc1cc(Nc2cc(N3OCC[C@@H]3c3cc(F)ccc3F)ncn2)c(OC)cc1N1CCC(N2C[C@@H](C)O[C@@H](C)C2)CC1 [compound 714, N-(5-((6-((R)-3-(2,5-difluorophenyl)isoxazolidine-2-yl)pyrimidine-4-yl)amino)-2-(4-((2S,6R)-2,6-dimethylmorpholino)piperidine-1-yl)-4-methoxyphenyl) acrylamide]"
3,B (50 nM ≤ GI50 < 500 nM),"C=CC(=O)Nc1cc(Nc2cc(N3OCC[C@H]3c3c(F)cccc3F)ncn2)c(OC)cc1N(C)CCN(C)C [compound 306, N-(5-((6-((S)-3-(2,6-difluorophenyl)isoxazolidine-2-yl)pyrimidine-4-yl)amino)-2-((2-(dimethylamino)ethyl)(methyl)amino)-4-methoxyphenyl) acrylamide]"
4,A (GI50 < 50 nM),"C=CC(=O)Nc1cc(Nc2cc(N3OCC[C@@H]3c3cccc(F)c3F)ncn2)c(OC)cc1N(C)CCN(C)C [compound 924, N-(5-((6-((R)-3-(2,3-difluorophenyl)isoxazolidine-2-yl)pyrimidine-4-yl)amino)-2-((2-(dimethylamino)ethyl)(methyl)amino)-4-methoxyphenyl) acrylamide]"
5,A (GI50 < 50 nM),"C=CC(=O)Nc1cc(Nc2cc(N3OCC[C@@H]3c3cccc(Cl)c3)ncn2)c(OC)cc1N1CCC(N(C)C)CC1 [compound 361, N-(5-((6-((R)-3-(3-chlorophenyl)isoxazolidine-2-yl)pyrimidine-4-yl)amino)-2-(4-(dimethylamino)piperidine-1-yl)-4-methoxyphenyl) acrylamide]"
6,A (GI50 < 50 nM),"C=CC(=O)Nc1cc(Nc2cc(N3OCC[C@@H]3c3ccc(Cl)cc3)ncn2)c(OC)cc1N1CCC(N(C)C)CC1 [compound 805, N-(5-((6-((R)-3-(4-chlorophenyl)isoxazolidine-2-yl)pyrimidine-4-yl)amino)-2-(4-(dimethylamino)piperidine-1-yl)-4-methoxyphenyl) acrylamide]"
7,A (GI50 < 50 nM),"C=CC(=O)Nc1cc(Nc2cc(N3OCC[C@@H]3c3cccc(Cl)c3F)ncn2)c(OC)cc1N(C)CCN(C)C [compound 746, N-(5-((6-((R)-3-(3-chloro-2-fluorophenyl)isoxazolidine-2-yl)pyrimidine-4-yl)amino)-2-((2-(dimethylamino)ethyl)(methyl)amino)-4-methoxyphenyl) acrylamide]"
8,A (GI50 < 50 nM),"C=CC(=O)Nc1cc(Nc2cc(N3OCC[C@@H]3c3cccc(Cl)c3C)ncn2)c(OC)cc1N1CCC(N2CCN(CC)CC2)CC1 [compound 487, N-(5-((6-((R)-3-(3-chloro-2-methylphenyl)isoxazolidine-2-yl)pyrimidine-4-yl)amino)-2-(4-(4-ethylpiperazine-1-yl)piperidine-1-yl)-4-methoxyphenyl) acrylamide]"
9,A (GI50 < 50 nM),"C=CC(=O)Nc1cc(Nc2cc(N3OCC[C@@H]3c3cccc(Cl)c3Cl)ncn2)c(OC)cc1N1C[C@H]2C[C@@H]1CN2CC [compound 525, N-(5-((6-((R)-3-(2,3-dichlorophenyl)isoxazolidine-2-yl)pyrimidine-4-yl)amino)-2-((1R,4R)-5-ethyl-2,5-diazabicyclo[2.2.1]heptane-2-yl)-4-methoxyphenyl) acrylamide]"
10,A (GI50 < 50 nM),"C=CC(=O)Nc1cc(Nc2cc(N3OCC[C@@H]3c3cccc(F)c3F)ncn2)c(OC)cc1N1CCN(C2CC2)CC1 [compound 333, N-(2-(4-cyclopropylpiperazine-1-yl)-5-((6-((R)-3-(2,3-difluorophenyl)isoxazolidine-2-yl)pyrimidine-4-yl)amino)-4-methoxyphenyl) acrylamide]"
11,A (GI50 < 50 nM),"C=CC(=O)Nc1cc(Nc2cc(N3OCC[C@@H]3c3cccc(C)c3F)ncn2)c(OC)cc1N(C)CCN(C)C [compound 846, N-(2-((2-(dimethylamino)ethyl) (methyl)amino)-5-((6-((R)-3-(2-fluoro-3-methylphenyl)isoxazolidine-2-yl)pyrimidine-4-yl)amino)-4-methoxyphenyl) acrylamide]"
12,A (GI50 < 50 nM),"C=CC(=O)Nc1cc(Nc2cc(N3OCC[C@@H]3c3cccc(F)c3F)ncn2)c(OC)cc1N1CCN(C2COC2)CC1 [compound 923, N-(5-((6-((R)-3-(2,3-difluorophenyl)isoxazolidine-2-yl)pyrimidine-4-yl)amino)-4-methoxy-2-(4-(oxetane-3-yl)piperazine-1-yl)phenyl) acrylamide]"
